Consider 3 compounds from ChEMBL document CHEMBL1158137, “Absolute configuration of sporotricale and structure of 6-hydroxysporotricale” (J Nat Prod, 2006).

Active and inactive are the calls of the source. No cut-off for these calls is given here.

Data set [1] relates to BMEC. Kind of data set: Cytotoxicity against bovine microvascular endothelial cells. It is filed as cell-based, Bos taurus. Conditions: cattle.
The species named for data set [2] is Gallus gallus. Kind of data set: Antiangiogenic activity against bFGF-induced angiogenesis in chick embryo chorioallantoic membrane. It is filed as functional, tissue-based.

`COc1cc(O)cc2c1C(=O)O[C@@H]2CCCCCCCCCC1(O)CC[C@@H](C)O1` (stereo partly specified): the Activity entry in data set [1] is recorded as “Non-toxic”. Moreover, in data set [2], the result was Active.

Take `COc1cc(O)cc2c1C(=O)O[C@@H]2CCCCC[C@@H]1CCC[C@]2(CC[C@@H](C)O2)O1`: the Activity result in data set [1] was “Non-toxic”. Further, in data set [2], the result was Active.

`COc1cc(O)c(O)c2c1C(=O)O[C@@H]2CCCCCCCCCC1(O)CC[C@@H](C)O1` (stereo partly specified): the Activity result in data set [1] was “Non-toxic”. Besides, in data set [2], the result was Active.
